Test results as given in US20260062426A1, “CYCLIN DEPENDENT KINASE DEGRADERS AND METHODS OF USE THEREOF” (Differentiated Therapeutics Inc, priority 2023, published 2026).

How the values were obtained:
Format in all cases: cell-based
[1] = target: T1, CCNE1 (Homo sapiens, UniProt P24864+P24941); test: CCNE1 HIBIT PQ (protein quantification), degradation; settings: for CCNE1 HIBIT PQ Max (%): Max = Maximum; for DC50: PQ = Protein Quantification
T1 construct: host or cells: HEK293
Summary of the method: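 For DC50 and maximal degradation, CCNE1 protein was quantified with a HiBiT assay in HEK293 cells carrying HiBiT-tagged CCNE1. Cells in EMEM with 10% FBS went into 384-well plates at 1.6×10⁵ cells/well in 50 uL, stayed overnight at 37° C and 5% CO₂, and then received compound for 6 hours. Readings were referenced to 0.1% DMSO-treated cells as the high control and culture medium only as the low control.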

[2] = target: T2, CDK9 (Homo sapiens, UniProt P50750); test: CDK9 HIBIT PQ (protein quantification), degradation; settings: for Dmax: Max = Maximum; for DC50: PQ = Protein Quantification
T2 construct: host or cells: HEK293
T2 sequence (P50750 whole entry): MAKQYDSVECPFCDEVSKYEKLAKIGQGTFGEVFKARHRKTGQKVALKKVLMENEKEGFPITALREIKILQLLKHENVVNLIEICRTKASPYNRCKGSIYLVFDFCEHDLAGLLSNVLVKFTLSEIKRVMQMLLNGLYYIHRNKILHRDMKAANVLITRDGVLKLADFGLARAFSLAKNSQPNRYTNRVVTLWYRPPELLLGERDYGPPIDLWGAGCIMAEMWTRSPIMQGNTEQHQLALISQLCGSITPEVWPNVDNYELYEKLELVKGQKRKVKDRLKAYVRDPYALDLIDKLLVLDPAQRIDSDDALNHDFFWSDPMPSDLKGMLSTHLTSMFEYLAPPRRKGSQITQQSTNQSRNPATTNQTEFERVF
Summary of the method: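 Maximal degradation, Dmax and DC50 come from HiBiT assay readings of CDK9 protein in compound-treated HEK293 cells that express HiBiT-tagged CDK9. The cells were grown in DMEM with 10% FBS and seeded at 1.6×10^5 cells/well in 50 uL in 384-well plates before overnight incubation at 37° C and 5% CO2. Cells treated with 0.1% DMSO set the high control, and medium only set the low control.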

[3] = target: T3, CDK2 (Homo sapiens, UniProt P24941); test: CDK2 HIBIT PQ (protein quantification), degradation; settings: for CDK2 HIBIT PQ Max (%): Max = Maximum; for DC50: PQ = Protein Quantification
T3 construct: host or cells: HEK293
Summary of the method: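 Maximal degradation and DC50 were obtained from luminescence readings of HEK293 cells expressing HiBiT-tagged CDK2. The cells, grown in DMEM with 10% FBS, were seeded at 1.6×10^5 cells/well in 50 uL in 384-well plates and incubated overnight at 37° C and 5% CO2 before 6 hours of compound treatment. HiBiT reagent (Nano-Glo HiBiT lytic buffer, lytic substrate, LgBiT protein) was then added at 20 μL, and plates were shaken for 20 minutes at room temperature before reading on an EnVision, against a high control of 0.1% DMSO and a low control of medium only.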

CCNE1 HIBIT PQ Max (%) [1] [%] | DC50 [1] [nM] | Dmax [2] [%] | DC50 [2] [nM] | CDK2 HIBIT PQ Max (%) [3] [%] | DC50 [3] [nM] | Compound
93 | 13.8 | 93 | 38.7 | 98 | 2.8 | CC(C)Oc1c(-c2cn[nH]c2)ncn2nc(N[C@H]3CCN(S(=O)(=O)c4cccc(CN5CCN(c6ccc7c(N8CCC(=O)NC8=O)nn(C)c7c6)CC5(C)C)c4)C[C@H]3C)nc12 [Compound 52]
65 | 0.92 | 75 | 1.22 | 91 | 0.1 | CC(C)Oc1c(-c2cn[nH]c2)ncn2nc(Nc3ccc(S(=O)(=O)N(C)CCCN4CCN(c5ccc6c(c5)n(C)c(=O)n6C5CCC(=O)NC5=O)C[C@@H]4C)cc3F)nc12 (some centres unmarked) [Compound 62]
66 | 1.24 | 85 | 2.07 | 92 | < 0.152 | CC(C)Oc1c(-c2cn[nH]c2)ncn2nc(Nc3ccc(S(=O)(=O)N(C)CCCN4CCN(c5ccc6c(c5)n(C)c(=O)n6C5CCC(=O)NC5=O)C[C@H]4C)cc3F)nc12 (some centres unmarked) [Compound 63]
65 | 1.79 | 74 | 3.38 | 89 | 0.2 | CC(C)Oc1c(-c2cn[nH]c2)ncn2nc(Nc3ccc(S(=O)(=O)N(C)CCCN4CCN(c5ccc6c(c5)n(C)c(=O)n6C5CCC(=O)NC5=O)C[C@@H]4C(C)C)cc3F)nc12 (some centres unmarked) [Compound 64]
39 |  | 49 |  | 85 | 0.2 | CC(C)Oc1c(-c2cn[nH]c2)ncn2nc(Nc3ccc(S(=O)(=O)N(C)CCCN4CCN(c5ccc6c(c5)n(C)c(=O)n6C5CCC(=O)NC5=O)C[C@H]4C(C)C)cc3F)nc12 (some centres unmarked) [Compound 65]
70 | 0.93 | 69 | 1.87 | 92 | 0.1 | CC(C)Oc1c(-c2cn[nH]c2)ncn2nc(Nc3ccc(S(=O)(=O)N(C)CCCN4CCN(c5ccc6c(c5)n(C)c(=O)n6C5CCC(=O)NC5=O)CC4)cc3F)nc12 (centres unmarked) [Compound 66]
18 |  | 6 |  | 71 | 0.5 | CC(C)Oc1c(-c2cn[nH]c2)ncn2nc(Nc3ccc(S(=O)(=O)N(C)CCCN4CC5CC4CN5c4ccc5c(c4)n(C)c(=O)n5C4CCC(=O)NC4=O)cc3F)nc12 (centres unmarked) [Compound 69]
35 |  | 29 |  | 78 |  | CC(C)Oc1c(-c2cn[nH]c2)ncn2nc(Nc3ccc(S(=O)(=O)N4CCC(CN5CCC(c6ccc7c(c6)n(C)c(=O)n7C6CCC(=O)NC6=O)CC5)C4)cc3F)nc12 (centres unmarked) [Compound 71]
64 | 0.17 | 71 | 0.5 | 88 |  | CC(C)Oc1c(-c2cn[nH]c2)ncn2nc(Nc3ccc(S(=O)(=O)N4CCCC(CN5CCC(c6ccc7c(c6)n(C)c(=O)n7C6CCC(=O)NC6=O)CC5)C4)cc3F)nc12 (centres unmarked) [Compound 72]
27 |  | 31 |  | 79 | 0.8 | CC(C)Oc1c(-c2cn[nH]c2)ncn2nc(Nc3ccc(S(=O)(=O)c4ccc(CN5CCC(c6ccc7c(c6)n(C)c(=O)n7[C@H]6CCC(=O)NC6=O)CC5)o4)cc3F)nc12 [Compound 73]

The remaining lines, values behind:

Compound | CCNE1 HIBIT PQ Max (%) [1] [%] | DC50 [1] [nM] | Dmax [2] [%] | DC50 [2] [nM] | CDK2 HIBIT PQ Max (%) [3] [%] | DC50 [3] [nM]
CC(C)Oc1c(-c2cn[nH]c2)ncn2nc(Nc3ccc(S(=O)(=O)c4cccc(CN5CCN(c6ccc7c(N8CCC(=O)NC8=O)nn(C)c7c6)CC5)c4)cc3F)nc12 [Compound 38] | 55 | 5.76 | 63 | 24 | 96 | 2.3
CC(C)Oc1c(-c2cn[nH]c2)ncn2nc(N[C@H]3CCN(S(=O)(=O)c4cccc(CN5CCN(c6ccc7c(N8CCC(=O)NC8=O)nn(C)c7c6)CC5)c4)C[C@H]3C)nc12 [Compound 40] | 89 | 8.91 | 103 | 16.7 | 96 | 3.6
CC(C)Oc1c(-c2cn[nH]c2)ncn2nc(Nc3ccc(S(=O)(=O)c4cccc(CN5CCN(c6ccc7c(N8CCC(=O)NC8=O)nn(C)c7c6)C6CC65)c4)cc3F)nc12 (centres unmarked) [Compound 44] | 39 |  | 15 |  | 92 | 3.5
CC(C)Oc1c(-c2cn[nH]c2)ncn2nc(Nc3ccc(S(=O)(=O)c4cccc(CN5C6CC5CN(c5ccc7c(N8CCC(=O)NC8=O)nn(C)c7c5)C6)c4)cc3F)nc12 [Compound 45] | 33 |  | -10 |  | 85 | 4.3
CC(C)Oc1c(-c2cn[nH]c2)ncn2nc(Nc3ccc(S(=O)(=O)c4cccc(CN5C6CCC5CN(c5ccc7c(N8CCC(=O)NC8=O)nn(C)c7c5)C6)c4)cc3F)nc12 [Compound 46] | 48 |  | 71 | 92.1 | 95 | 3.6
CC(C)Oc1c(-c2cn[nH]c2)ncn2nc(Nc3ccc(S(=O)(=O)c4cccc(CN5CCN(c6ccc7c(N8CCC(=O)NC8=O)nn(C)c7c6)CC5(C)C)c4)cc3F)nc12 [Compound 47] | 72 | 55 | 74 | 136 | 97 | 6.2
CC(C)Oc1c(-c2cn[nH]c2)ncn2nc(Nc3ccc(S(=O)(=O)c4cccc(CN5CC6CC5CN6c5ccc6c(N7CCC(=O)NC7=O)nn(C)c6c5)c4)cc3F)nc12 (centres unmarked) [Compound 48] | 21 |  | 2 |  | 79 | 3.1
CC(C)Oc1c(-c2cn[nH]c2)ncn2nc(N[C@H]3CCN(S(=O)(=O)c4cccc(CN5CCN(c6ccc7c(N8CCC(=O)NC8=O)nn(C)c7c6)C(C)C5)c4)C[C@H]3C)nc12 (some centres unmarked) [Compound 49] | 96 | 9.43 | 104 | 11.6 | 98 | 2.2
CCC1CN(c2ccc3c(N4CCC(=O)NC4=O)nn(C)c3c2)CCN1Cc1cccc(S(=O)(=O)N2CC[C@H](Nc3nc4c(OC(C)C)c(-c5cn[nH]c5)ncn4n3)[C@H](C)C2)c1 (some centres unmarked) [Compound 50] | 90 | 15.2 | 96 | 23.5 | 97 | 2.8
CC(C)Oc1c(-c2cn[nH]c2)ncn2nc(N[C@H]3CCN(S(=O)(=O)c4cccc(CN5CCN(c6ccc7c(N8CCC(=O)NC8=O)nn(C)c7c6)CC5C)c4)C[C@H]3C)nc12 (some centres unmarked) [Compound 51] | 92 | 9.29 | 100 | 20.2 | 98 | 2.4
CC(C)Oc1c(-c2cn[nH]c2)ncn2nc(Nc3ccc(S(=O)(=O)N(C)CCCN4C5CCC4CN(c4ccc6c(c4)n(C)c(=O)n6C4CCC(=O)NC4=O)C5)cc3F)nc12 (centres unmarked) [Compound 68] | 67 | 1.05 | 73 | 2.76 | 90 | 0.1
CC(C)Oc1c(-c2cn[nH]c2)ncn2nc(Nc3ccc(S(=O)(=O)N(C)CCCN4C5CC4CN(c4ccc6c(c4)n(C)c(=O)n6C4CCC(=O)NC4=O)C5)cc3F)nc12 (centres unmarked) [Compound 70] | 20 |  | 9 |  | 61 | 0.3
